Experimental data reported in patent US10766884B2 (Pfizer Inc., priority 2018, dated 2020).

Experiments:
CDK4/Cyclin D1 = CDK4/Cyclin D1 (Homo sapiens (Human), UniProt P11802); experiment: CDK4/Cyclin D1 mobility shift assay; assay type: biochemical; conditions: activated CDK4/Cyclin D1, 3.5 mM ATP, Morrison fit; read-out: CDK4D1 Ki
Protocol: (§1) The purpose CDK4/Cyclin D1 assay is to evaluate the inhibition (% inhibition, Kiapp and Ki values) in the presence of small molecule inhibitors by using a fluorescence based microfluidic mobility shift assay. […] The mobility shift assay electrophoretically separates the fluorescently labeled peptides (substrate and phosphorylated product) following the kinase reaction. Both substrate and product are measured and the ratio of these values is used to generate % Conversion of substrate to product by the LabChip EZ Reader.
The reaction was stopped after 195 minutes by the addition of 50 μL of 30 mM EDTA. Ki determinations were made from a plot of the fractional velocity as a function of inhibitor concentration fit to the Morrison equation with the enzyme concentration as a variable.
(§2) For CDK4 and CDK6 mobility shift assays, see also Morrison, J. F. (1969) Kinetics of the reversible inhibition of enzyme-catalysed reactions by tight-binding inhibitors, Biochimica et biophysica acta 185, 269-286; and Murphy, D. J. (2004) Determination of accurate KI values for tight-binding enzyme inhibitors: an in silico study of experimental error and assay design, Analytical biochemistry 327, 61-67.

CDK6/Cyclin D3 = CDK6/Cyclin D3 (Homo sapiens (Human), UniProt Q00534); experiment: CDK6/Cyclin D3 mobility shift assay; assay type: biochemical; conditions: activated CDK6/Cyclin D3, 3.5 mM ATP, Morrison fit; read-out: CDK6_D3 Ki
Sequence of CDK6/Cyclin D3 (Q00534 whole entry): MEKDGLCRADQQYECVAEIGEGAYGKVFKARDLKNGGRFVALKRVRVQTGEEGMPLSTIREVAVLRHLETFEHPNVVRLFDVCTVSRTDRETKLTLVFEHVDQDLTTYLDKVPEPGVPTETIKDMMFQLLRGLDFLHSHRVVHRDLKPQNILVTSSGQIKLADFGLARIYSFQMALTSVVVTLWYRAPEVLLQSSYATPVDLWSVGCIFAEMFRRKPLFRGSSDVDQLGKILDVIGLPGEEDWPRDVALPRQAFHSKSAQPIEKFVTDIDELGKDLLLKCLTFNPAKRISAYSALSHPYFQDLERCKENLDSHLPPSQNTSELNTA
Sequence of CDK6/Cyclin D3 (P30281 whole entry partner): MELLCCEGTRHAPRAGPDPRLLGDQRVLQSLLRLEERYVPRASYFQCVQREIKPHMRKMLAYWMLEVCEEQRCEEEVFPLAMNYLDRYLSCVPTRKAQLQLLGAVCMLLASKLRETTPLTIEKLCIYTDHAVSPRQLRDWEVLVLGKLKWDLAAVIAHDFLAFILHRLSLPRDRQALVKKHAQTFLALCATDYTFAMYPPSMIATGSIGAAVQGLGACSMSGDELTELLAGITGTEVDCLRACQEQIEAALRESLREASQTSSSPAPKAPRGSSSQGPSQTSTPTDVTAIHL
Protocol: as §1, with “of the CDK6/Cyclin D3” for “CDK4/Cyclin D1”, “conversion” for “Conversion”
The reaction was stopped after 95 minutes by the addition of 50 μL of 30 mM EDTA. Ki determinations were made from a plot of the fractional velocity as a function of inhibitor concentration fit to the Morrison equation with the enzyme concentration as a variable.
as §2

CDK4 = CDK4 (Homo sapiens (Human), UniProt P11802); experiment: Phospho-Serine 795 Rb ELISA assay in JEKO-1 cells; assay type: cell-based; conditions: overnight treatment, phospho-Rb S795, read-out: CDK4 pRB S795 ELISA JEKO-1 cells IC50
Sequence of CDK4 (P11802 2-303): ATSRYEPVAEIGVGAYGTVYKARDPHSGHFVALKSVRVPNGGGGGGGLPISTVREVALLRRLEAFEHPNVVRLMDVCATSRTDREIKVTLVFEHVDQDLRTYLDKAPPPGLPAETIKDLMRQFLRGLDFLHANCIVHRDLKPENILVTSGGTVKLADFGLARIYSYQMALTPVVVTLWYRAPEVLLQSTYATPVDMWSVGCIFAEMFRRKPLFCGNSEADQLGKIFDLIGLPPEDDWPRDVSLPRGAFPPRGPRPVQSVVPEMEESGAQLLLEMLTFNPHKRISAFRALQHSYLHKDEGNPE
Sequence of CDK4 (P24385 whole entry partner): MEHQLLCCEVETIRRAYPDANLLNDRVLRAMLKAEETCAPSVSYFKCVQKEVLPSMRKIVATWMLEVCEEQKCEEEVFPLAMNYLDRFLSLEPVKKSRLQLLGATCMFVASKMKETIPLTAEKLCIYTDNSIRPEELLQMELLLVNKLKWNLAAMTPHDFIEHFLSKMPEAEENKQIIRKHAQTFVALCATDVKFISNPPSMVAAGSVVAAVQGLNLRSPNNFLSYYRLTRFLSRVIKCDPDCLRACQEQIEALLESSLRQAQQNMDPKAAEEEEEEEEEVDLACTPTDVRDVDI
Protocol: (§3) JEKO-1 or MV4-11 cells were seeded at 15,000 or 20,000 cells per well, respectively, in 100 μL growth media and allowed to incubate at 37° C. with 5% CO2 overnight. The following day, compounds were serially diluted from a 10 mM top dose for an 11-point 3-fold dilution curve in DMSO. Compounds were intermediately diluted 1:200 into growth media prior to diluting 1:5 on cells for final concentration 10 μM to 0.1 nM in 0.1% DMSO on cells. JEKO-1 and MV4-11 cells were treated were treated overnight, at 37° C. with 5% CO2. Cells were lysed in 100 μL/well CST lysis buffer on ice and transferred to pre-coated and blocked anti-phospho-Ser795 Rb ELISA plates for overnight incubation at 4° C. Plates were washed to remove residual, unbound cellular proteins and total Rb detection antibody added for 90 minutes at 37° C. Following wash to remove unbound total Rb antibody, the HRP tagged antibody was allowed to bind for 30 minutes at 37° C. Following wash to remove unbound HRP antibody, Glo Substrate Reagent was added and incubated protected from light for 5 to 10 minutes. Plates were read in luminescence mode and IC50 values calculated.

CDK6 = CDK6 (Homo sapiens (Human), UniProt Q00534); experiment: Phospho-Serine 795 Rb ELISA assay in MV4-11 cells; assay type: cell-based; conditions: overnight treatment, phospho-Rb S795, read-out: CDK6 pRB S795 ELISA MV4-11 cells IC50
Sequence of CDK6 (Q00534 whole entry): as the sequence (Q00534 whole entry) above
Sequence of CDK6 (P30281 whole entry partner): as the sequence (P30281 whole entry partner) above
Protocol: as §3

Sequence of CDK4/Cyclin D1 (P11802 whole entry): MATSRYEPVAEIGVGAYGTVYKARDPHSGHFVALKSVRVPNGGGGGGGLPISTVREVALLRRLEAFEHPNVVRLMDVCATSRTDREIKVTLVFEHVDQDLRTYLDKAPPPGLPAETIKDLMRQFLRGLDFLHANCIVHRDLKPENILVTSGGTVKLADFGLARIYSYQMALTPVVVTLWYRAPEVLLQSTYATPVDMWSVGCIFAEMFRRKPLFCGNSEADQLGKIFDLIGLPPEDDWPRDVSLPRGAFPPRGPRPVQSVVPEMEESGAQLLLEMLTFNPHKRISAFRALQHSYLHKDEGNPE
Sequence of CDK4/Cyclin D1 (P24385 whole entry partner): as the sequence (P24385 whole entry partner) above

Row | Ki (CDK4/Cyclin D1) | Ki (CDK6/Cyclin D3) | IC50 (CDK4) | IC50 (CDK6) | Compound
1 | 1.3 nM | 16.4 nM | 40.1 nM | 167 nM | CC(C)n1c(C(C)(O)C2CC2)nc2c(F)cc(-c3nc(N[C@@H]4CCOC[C@H]4O)ncc3Cl)cc21 (single isomer, unassigned) [Example A24]
2 | 0.5 nM | 7.1 nM | 23.5 nM | 87 nM | CC(C)n1c(C2CCO2)nc2c(F)cc(-c3nc(N[C@@H]4CCN(S(C)(=O)=O)C[C@H]4O)ncc3Cl)cc21 (single isomer, unassigned) [Example A31]
3 | 0.2 nM | 3.7 nM | 19.6 nM | 43.9 nM | CC(O)c1nc2c(F)cc(-c3nc(N[C@@H]4CCOC[C@H]4O)ncc3Cl)cc2n1C(C)C(F)F (single isomer, unassigned) [Example A36]
4 | 1 nM | 24.6 nM | 383 nM | 370 nM | CC(N)c1nc2c(F)cc(-c3nc(N[C@@H]4CCN(S(C)(=O)=O)C[C@H]4O)ncc3Cl)cc2n1C(C)C (single isomer, unassigned) [Example A47]
5 | 0.1 nM | 2.3 nM | 36.5 nM | 58.9 nM | CC(N)c1nc2c(F)cc(-c3nc(N[C@@H]4CCN(S(C)(=O)=O)C[C@H]4O)ncc3Cl)cc2n1C(C)C (single isomer, unassigned) [Example A48]
6 | 3.2 nM | 64.9 nM | 198 nM | 283 nM | CC1CNCc2nc3c(F)cc(-c4nc(N[C@@H]5CCOC[C@H]5O)ncc4Cl)cc3n21 (single isomer, unassigned) [Example A55, 1,5-anhydro-3-{[5-chloro-4-(9-fluoro-4-methyl-1,2,3,4-tetrahydropyrazino[1,2-a]benzimidazol-7-yl)pyrimidin-2-yl]amino}-2,3-dideoxy-D-threo-pentitol]
7 | 0.4 nM | 19.1 nM | 49 nM | 269 nM | CC(C)n1c(CC(N)C(F)F)nc2c(F)cc(-c3nc(N[C@@H]4CCOC[C@H]4O)ncc3Cl)cc21 (single isomer, unassigned) [Example A57, 3-({4-[2-(2-amino-3,3-difluoropropyl)-4-fluoro-1-(propan-2-yl)-1H-benzimidazol-6-yl]-5-chloropyrimidin-2-yl}amino)-1,5-anhydro-2,3-dideoxy-D-threo-pentitol]
8 | 0.6 nM | 17.6 nM | 33.1 nM | 203 nM | CC(C)n1c(CC(N)C(F)F)nc2c(F)cc(-c3nc(N[C@@H]4CCOC[C@H]4O)ncc3Cl)cc21 (single isomer, unassigned) [Example A58, 3-({4-[2-(2-amino-3,3-difluoropropyl)-4-fluoro-1-(propan-2-yl)-1H-benzimidazol-6-yl]-5-chloropyrimidin-2-yl}amino)-1,5-anhydro-2,3-dideoxy-D-threo-pentitol]
9 | 0.9 nM | 16.1 nM | 72 nM | 188 nM | COCC(C)n1c(C)nc2c(F)cc(-c3nc(N[C@@H]4CCN(S(C)(=O)=O)C[C@H]4O)ncc3Cl)cc21 (single isomer, unassigned) [Example A73]
10 | 0.2 nM | 6.2 nM | 26.5 nM | 89.7 nM | COCC(C)n1c(C)nc2c(F)cc(-c3nc(N[C@@H]4CCN(S(C)(=O)=O)C[C@H]4O)ncc3Cl)cc21 (single isomer, unassigned) [Example A74]
11 | 0.1 nM | 2.3 nM | 25.3 nM | 76.5 nM | Cc1nc2c(F)cc(-c3nc(N[C@@H]4CCN(S(C)(=O)=O)C[C@H]4O)ncc3Cl)cc2n1C(C)C [Example A01, (3R,4R)-4-({5-chloro-4-[4-fluoro-2-methyl-1-(propan-2-yl)-1H-benzimidazol-6-yl]pyrimidin-2-yl}amino)-1-(methanesulfonyl)piperidin-3-ol]
12 | 0.1 nM | 2.5 nM | 88.6 nM | 163 nM | Cc1nc2c(F)cc(-c3nc(N[C@@H]4CCN(S(C)(=O)=O)C[C@H]4O)ncc3F)cc2n1C(C)C [Example A02]
